Experimental findings from article PMC8910920 (International Journal of Molecular Sciences, 2022) are described below.

What is called inhibition is the change of the read-out against control, counted positive when it falls. By IC50 is commonly meant the concentration that inhibits the measured activity by half. One may read the microsomal CLint as a measure of how fast metabolising enzymes remove a compound, apart from limits set by blood flow. Read a low microsomal CLint as greater metabolic stability.

The structures appear in SMILES notation.

One data set concerns the target T1, hM3 (Homo sapiens, UniProt P20309).
T1 construct: host or cells: CHO
The data set can be described thus: Radioligand binding assay, CHO cells, hM3. The following applies: radioligand [3H]4-DMAP. As for the experimental part: To define whether β–lactam derivative RGM8-51 could bind to CGRPR, CB2 and M3 receptors, in vitro binding assays were performed, using CHO cell lines transfected with these receptors. The degree of binding was determined by using specific radioligands for each receptor (Table 2, footnote).
These studies were subcontracted to Eurofins-CEREP or Eurofins-PANLABS. Briefly, agonists and antagonist assays were performed in cell cultures overexpressing the corresponding channel (CHO: TRPV1 and TRPA1; HEK293: TRPV3 and ASIC3). In vitro pharmacology, cellular channel functional assays: the compound was prepared in assay buffer to the final concentration, 10 μM. […] The agonist assay was conducted on fluorimeter instruments where the test compound, vehicle controls, and reference agonist were added to the assay plate after a fluorescence baseline was established. […] For the antagonist assay, the compound was pre-incubated for five minutes at room temperature, and then challenged with the EC80 concentration of the reference agonist after establishment of a fluorescence baseline. […] Binding assay results are expressed as a percent of control specific binding. […] Aqueous solubility (μM) was determined by comparing the peak area of the principal peak in a calibration standard (200 μM) containing organic solvent (methanol/water, 60/40, v/v) with the peak area of the corresponding peak in a buffer sample. […]

The target in a further data set is T2, hTRPM8 (Homo sapiens, UniProt Q7Z2W7).
T2 construct: expressed in transfected cells
As to the kind of experiment: Ca2+ microfluorography assay, HEK293 cells expressing hTRPM8. It is filed as cell-based. The settings on record: HEK293-hTRPM8, 100 μM menthol. On the procedure: This represents a similar activity as β–lactam 2 and a somewhat higher potency than the model TRPM8 antagonists AMTB.
To measure the effect of the compounds against TRPM8 activity we used microfluorometry-based calcium flux assays with Fluo-4 NW Ca^2+ dye and fluorescence as described in [30]. Briefly, human embryonic kidney cell line (HEK293) cells stably transfected with rTRPM8 or hTRPM8 were seeded in 96-well plates at a cell density of 30,000 cells. After 2 days the medium was replaced with 100 μL of the dye, Fluo-4 NW, loading solution supplemented with probenecid 2.5 mM and incubated 1 h at 37 °C. The TRPM8 activity was measured using POLASTAR plate reader (BMG Labtech) setting the excitation wavelength at 485 nm and the emission wavelength at 520 nm. The baseline fluorescence was recorded for 3 cycles before the addition of vehicle compound at different concentrations and the antagonist, 10 μM AMTB. Fluorescence intensity was recorded during 7 more cycles and 100 μM menthol was added. Fluorescence intensity was recorded during 10 more cycles.
Data analysis: The Z-factor was calculated in each assay using the following equation: (3 × (SDmax + SDmin))/(Mean max-Mean min). In all the experiments, the Z-factor was ≥0.5. The effect of the compounds against TRPM8 activity was determined by normalizing their effect on the maximum fluorescence observed after application of 100 μM menthol. […]

The nature of data set [1]: In vitro metabolism in human liver microsomes. It is filed as in vitro ADME.

T1 sequence (P20309 whole entry): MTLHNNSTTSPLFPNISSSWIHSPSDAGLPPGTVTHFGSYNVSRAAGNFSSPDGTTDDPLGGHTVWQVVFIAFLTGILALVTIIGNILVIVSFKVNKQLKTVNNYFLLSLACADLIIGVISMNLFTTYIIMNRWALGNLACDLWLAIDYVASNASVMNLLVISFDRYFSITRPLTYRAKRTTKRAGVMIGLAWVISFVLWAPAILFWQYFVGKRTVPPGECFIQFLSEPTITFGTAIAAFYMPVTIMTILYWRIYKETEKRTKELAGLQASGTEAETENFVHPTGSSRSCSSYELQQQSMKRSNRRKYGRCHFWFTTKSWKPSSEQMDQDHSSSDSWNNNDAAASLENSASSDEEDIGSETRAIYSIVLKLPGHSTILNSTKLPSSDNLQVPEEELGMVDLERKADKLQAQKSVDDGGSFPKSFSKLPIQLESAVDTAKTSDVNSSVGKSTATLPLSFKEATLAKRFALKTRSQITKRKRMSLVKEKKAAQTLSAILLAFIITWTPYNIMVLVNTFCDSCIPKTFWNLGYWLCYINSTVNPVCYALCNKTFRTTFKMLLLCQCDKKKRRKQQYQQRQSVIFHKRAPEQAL
T2 sequence (Q7Z2W7 whole entry): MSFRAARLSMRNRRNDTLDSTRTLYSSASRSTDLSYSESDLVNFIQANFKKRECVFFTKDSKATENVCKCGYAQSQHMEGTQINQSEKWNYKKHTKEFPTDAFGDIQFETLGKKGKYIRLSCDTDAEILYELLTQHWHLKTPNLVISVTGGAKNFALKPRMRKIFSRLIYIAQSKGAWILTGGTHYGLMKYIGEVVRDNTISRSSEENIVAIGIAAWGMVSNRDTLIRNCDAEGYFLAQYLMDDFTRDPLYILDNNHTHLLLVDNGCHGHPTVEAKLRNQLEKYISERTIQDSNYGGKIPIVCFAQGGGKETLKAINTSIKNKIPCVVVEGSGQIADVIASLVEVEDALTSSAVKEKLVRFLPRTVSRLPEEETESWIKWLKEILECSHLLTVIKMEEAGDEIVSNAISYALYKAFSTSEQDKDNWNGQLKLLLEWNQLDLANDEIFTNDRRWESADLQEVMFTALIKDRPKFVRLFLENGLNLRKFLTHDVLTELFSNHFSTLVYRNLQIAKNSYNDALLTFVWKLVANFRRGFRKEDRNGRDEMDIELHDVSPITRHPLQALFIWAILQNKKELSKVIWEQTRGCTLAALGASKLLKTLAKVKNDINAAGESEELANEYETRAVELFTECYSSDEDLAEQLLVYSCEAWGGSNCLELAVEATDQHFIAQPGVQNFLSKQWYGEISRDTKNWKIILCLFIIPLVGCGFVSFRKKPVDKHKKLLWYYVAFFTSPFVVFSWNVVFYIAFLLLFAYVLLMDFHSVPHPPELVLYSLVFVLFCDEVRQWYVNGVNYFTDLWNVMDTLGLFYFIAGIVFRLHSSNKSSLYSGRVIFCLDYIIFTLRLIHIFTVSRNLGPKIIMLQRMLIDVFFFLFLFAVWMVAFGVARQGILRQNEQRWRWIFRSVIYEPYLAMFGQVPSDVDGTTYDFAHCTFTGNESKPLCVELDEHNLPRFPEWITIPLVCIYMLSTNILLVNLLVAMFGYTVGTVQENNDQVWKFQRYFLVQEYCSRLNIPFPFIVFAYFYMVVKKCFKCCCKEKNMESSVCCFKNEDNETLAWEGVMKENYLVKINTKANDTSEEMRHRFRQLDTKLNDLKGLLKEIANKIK

In the case of `C[C@@H]1C(=O)N(C[C@H](Cc2ccccc2)N(Cc2ccccc2)Cc2ccccc2)[C@]1(Cc1ccccc1)C(=O)OC(C)(C)C` [RGM8-51, 4(S)-Benzyl-3S-methyl-4-(tert-butoxy)carbonyl-1-[(2′S-dibenzylamino-3′-phenyl)prop-1′-yl]-2-oxoazetidine], the “Binding hM3 (%), inhibition of specific binding” value on hM3 (10 μM) is “did not show significant affinity”. Besides, the inhibition at 10 µM on hM3 (read-out: Binding hM3 (%), inhibition of specific binding) was -4.1 ± 3.1%. The same molecule registered an IC50 against hTRPM8 of 1740 ± 1190 nM. Moreover, in data set [1], the “Metabolism Clint” value was 614 µL/min/mg and the “Metabolism t1/2” value was determined as 11 min. The molecule also registered a microsomal CLint in data set [1] (human, liver microsomes) of 614 µL/min/mg. In addition, the half-life in data set [1] (human, liver microsomes, read-out: Metabolism t1/2) was found to be 11.3 min.
